# Read-outs that look alike come from different tables or passages of the source.
# Experiment: Plasma and tissue concentrations of efavirenz after tail vein injection
# Format: in vivo, CD-1 mice
# Details: mice, 5 mg/kg tail vein; for concentration at […]: 0.25 h
# Procedure: The efavirenz-loaded apical AVT-EVs were subsequently injected via tail vein into CD-1 mice at a dose of 5 mg/kg and compared to a control injection of 5 mg/kg of conventional efavirenz (dissolved with DMSO). Plasma and tissue concentrations were determined by LC-MS/MS.
# [1] = CD-1, mouse, liver, intravenous, LLOQ 35 ng/g, read-out: Efavirenz concentration, Liver
# [2] = CD-1, mouse, lung, intravenous, LLOQ 35 ng/g, read-out: Efavirenz concentration, Lungs
# [3] = CD-1, mouse, plasma, intravenous, read-out: Efavirenz concentration, Plasma
compound,measurement,setting,value
"O=C1Nc2ccc(Cl)cc2[C@@](C#CC2CC2)(C(F)(F)F)O1 [Efavirenz in DMSO, efavirenz]",concentration at 0.083 h,[1],7590 ng/g
same,concentration at […],[1],5420 ng/g
same,concentration at 0.5 h,[1],5230 ng/g
same,concentration at 1 h,[1],176 ng/g
same,concentration at 2 h,[1],135 ng/g
same,concentration at 3 h,"CD-1, mouse, liver, intravenous, 3 h, LLOQ 35 ng/g, read-out: Efavirenz concentration, Liver",136 ng/g
same,concentration at 4 h,"CD-1, mouse, liver, intravenous, 4 h, LLOQ 35 ng/g, read-out: Efavirenz concentration, Liver",137 ng/g
same,concentration at 6 h,"CD-1, mouse, liver, intravenous, 6 h, LLOQ 35 ng/g, read-out: Efavirenz concentration, Liver",115 ng/g
same,concentration at 0.083 h,[2],2140 ng/g
same,concentration at […],[2],802 ng/g
same,concentration at 0.5 h,[2],830 ng/g
same,concentration at 1 h,[2],273 ng/g
same,concentration at 0.083 h,[3],4100 ng/mL
same,concentration at […],[3],2820 ng/mL
same,concentration at 0.5 h,[3],1620 ng/mL
same,concentration at 1 h,[3],1560 ng/mL
same,concentration at 2 h,[3],724 ng/mL
same,concentration at 3 h,"CD-1, mouse, plasma, intravenous, 3 h, read-out: Efavirenz concentration, Plasma",396 ng/mL
same,concentration at 4 h,"CD-1, mouse, plasma, intravenous, 4 h, read-out: Efavirenz concentration, Plasma",103 ng/mL
same,concentration at 6 h,"CD-1, mouse, plasma, intravenous, 6 h, read-out: Efavirenz concentration, Plasma",64.4 ng/mL
same,concentration at 8 h,"CD-1, mouse, plasma, intravenous, 8 h",33.1 ng/mL
same,AUC(0-t),"CD-1, mouse, plasma, intravenous, read-out: area under the plasma-time concentration curve (AUC0-8h) of efavirenz",4520 ng·h/mL
same,AUC0-8h for efavirenz in the lungs,,0.95 µg·h/g
same,lung:liver tissue AUC0-8h ratio,,0.19
same,overall exposure of the liver relative to the lungs,,approximately 5 times
same,"Efavirenz concentration, Lungs","3 h, LLOQ 35 ng/g",<LLOQ
same,"Efavirenz concentration, Lungs","4 h, LLOQ 35 ng/g",<LLOQ
same,"Efavirenz concentration, Lungs","6 h, LLOQ 35 ng/g",<LLOQ
same,"Efavirenz concentration, Liver","8 h, LLOQ 35 ng/g",<LLOQ
same,"Efavirenz concentration, Lungs","8 h, LLOQ 35 ng/g",<LLOQ
